Data reported in BindingDB's records for doi:10.1021/jm960596u (National Cancer Institute-Bethesda, 1997).

What was measured:
Integrase [1] = biological target: T1, Integrase (Human immunodeficiency virus 1, UniProt Q7ZJM1); test: Inhibitory concentration to inhibit HIV-1 integrase by 3' -processing method
Integrase [2] = biological target: T1, Integrase; test: Inhibitory concentration against HIV-1 integrase by strand transfer method

T1 sequence (Q7ZJM1 whole entry): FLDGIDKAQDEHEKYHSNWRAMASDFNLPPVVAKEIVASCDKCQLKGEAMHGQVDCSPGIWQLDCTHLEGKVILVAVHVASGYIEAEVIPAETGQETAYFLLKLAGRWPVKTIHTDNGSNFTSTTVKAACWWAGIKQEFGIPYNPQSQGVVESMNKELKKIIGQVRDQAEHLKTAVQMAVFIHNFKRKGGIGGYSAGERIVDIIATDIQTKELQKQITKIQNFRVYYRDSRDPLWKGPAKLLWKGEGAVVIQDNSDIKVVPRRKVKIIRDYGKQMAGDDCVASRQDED

| SMILES | IC50 (Integrase [1]) | IC50 (Integrase [2]) |
| --- | --- | --- |
| CC1=C(N)C(=NNc2ccc(S(=O)(=O)Nc3nnc(C)s3)cc2)C(=O)C(C)C1=O (stereo not given) [4-(2-Amino-3,5-dimethyl-4,6-dioxo-cyclohex-1-enylazo)-N-(5-methyl-[1,3,4]thiadiazol-2-yl)-benzenesulfonamide] | > 200 µM | > 200 µM |
| NS(=O)(=O)c1ccc(NN=C2Sc3nc4ccccc4n3C2=O)cc1 [4-(3-Oxo-2,3-dihydro-benzo[4,5]imidazo[2,1-b]thiazol-2-ylazo)-benzenesulfonamide] | > 200 µM | > 200 µM |
| Cc1[nH]n(-c2ccccc2)c(=O)c1N=Nc1ccc(S(=O)(=O)Nc2ncccn2)cc1 [4-(3-Methyl-5-oxo-1-phenyl-4,5-dihydro-1H-pyrazol-4-ylazo)-N-pyrimidin-2-yl-benzenesulfonamide] | > 200 µM | > 200 µM |
| CC1=C(N)C(=NNc2ccc(S(=O)(=O)Nc3scc(C)c3C)cc2)C(=O)C(C)C1=O (stereo not given) [4-(2-Amino-3,5-dimethyl-4,6-dioxo-cyclohex-1-enylazo)-N-(3,4-dimethyl-thiophen-2-yl)-benzenesulfonamide] | > 200 µM | > 200 µM |
| NS(=O)(=O)c1ccc(N=Cc2c(O)n(-c3ccccc3)n(-c3ccccc3)c2=O)cc1 [4-[(3,5-Dioxo-1,2-diphenyl-pyrazolidin-4-ylidenemethyl)-amino]-benzenesulfonamide] | > 200 µM | > 200 µM |
| Cc1cc(NS(=O)(=O)c2ccc(N=Nc3c(C)[nH]n(-c4ccccc4)c3=O)cc2)nc(C)n1 [N-(2,6-Dimethyl-pyrimidin-4-yl)-4-(3-methyl-5-oxo-1-phenyl-4,5-dihydro-1H-pyrazol-4-ylazo)-benzenesulfonamide] | > 200 µM | > 200 µM |
| CC1=C(N)C(=NNc2ccc(S(=O)(=O)Nc3ccccn3)cc2)C(=O)C(C)C1=O (stereo not given) [4-(2-Amino-3,5-dimethyl-4,6-dioxo-cyclohex-1-enylazo)-N-pyridin-2-yl-benzenesulfonamide] | > 200 µM | > 200 µM |
| CC1=C(N)C(=NNc2ccc(S(=O)(=O)Nc3ncccn3)cc2)C(=O)C(C)C1=O (stereo not given) [4-(2-Amino-3,5-dimethyl-4,6-dioxo-cyclohex-1-enylazo)-N-pyrimidin-2-yl-benzenesulfonamide] | > 200 µM | > 200 µM |
| CC1=C(N)C(=NNc2ccc(S(=O)(=O)Nc3cc(C)nc(C)n3)cc2)C(=O)C(C)C1=O (stereo not given) [4-(2-Amino-3,5-dimethyl-4,6-dioxo-cyclohex-1-enylazo)-N-(2,6-dimethyl-pyrimidin-4-yl)-benzenesulfonamide] | > 200 µM | > 200 µM |
| CC1=C(N)C(=NNc2ccc(S(=O)(=O)Nc3nccc(C)n3)cc2)C(=O)C(C)C1=O (stereo not given) [4-(2-Amino-3,5-dimethyl-4,6-dioxo-cyclohex-1-enylazo)-N-(4-methyl-pyrimidin-2-yl)-benzenesulfonamide] | > 200 µM | > 200 µM |

Continued, values first:

| IC50 (Integrase [1]) | IC50 (Integrase [2]) | SMILES |
| --- | --- | --- |
| > 200 µM | > 200 µM | CC1=C(N)C(=NNc2ccc(S(=O)(=O)Nc3nccs3)cc2)C(=O)C(C)C1=O (stereo not given) [4-(2-Amino-3,5-dimethyl-4,6-dioxo-cyclohex-1-enylazo)-N-thiazol-2-yl-benzenesulfonamide] |
| > 200 µM | > 200 µM | Cc1[nH]n(-c2ccccc2)c(=O)c1N=Nc1ccc(S(N)(=O)=O)cc1 |
| > 200 µM | > 200 µM | Cc1[nH]n(-c2ccccc2)c(=O)c1N=Nc1ccc(S(=O)(=O)Nc2ccccn2)cc1 [4-(3-Methyl-5-oxo-1-phenyl-4,5-dihydro-1H-pyrazol-4-ylazo)-N-pyridin-2-yl-benzenesulfonamide] |
| > 200 µM | > 200 µM | NS(=O)(=O)c1ccc(N=Nc2c(O)n(-c3ccccc3)n(-c3ccccc3)c2=O)cc1 [4-[N'-(3,5-Dioxo-1,2-diphenyl-pyrazolidin-4-ylidene)-hydrazino]-benzenesulfonamide] |
| > 200 µM | > 200 µM | CCC(=O)CC=c1[nH]c2nnc(CCCCc3nnc4[nH]c(=CCC(=O)CC)c(=O)n34)n2c1=O [1-(5-oxo-3-{4-[5-oxo-6-(3-oxopentyl)-5H-imidazo[2,1-c][1,2,4]triazol-3-yl]butyl}-5H-imidazo[2,1-c][1,2,4]triazol-6-yl)-3-pentanone] |
